Reference: patent publication US9988348B1, “Synthesis and antimicrobial use of a trithiocarbonate derivative” (KING SAUD UNIVERSITY, priority 2017, dated 2018)
Where “and” joins values, the source holds several entries; their conditions need not be identical. Equal entries are not always repeated.

How the values were obtained:
Test in all cases: disk diffusion assay, inhibition zone
Assay type in all cases: cell-based
[1] = system: Aspergillus fumigatus AUMC 8794; conditions: A. fumigatus; 4 mg/disk; soluble water compound 4
Description: (§1) To evaluate antimicrobial activity of the compound 4, synthesized in our laboratory as novel anti-bacterial and anti-fungal agents, the inhibition zone diameter (mm) and the minimal inhibitory concentration were determined according to (Andrews 2001; Hudzicki 2009). The test carried out on several clinical microorganisms included Gram positive bacteria (Staphylococcus aureus ATCC and Streptococcus mutans ATCC 35668), Gram negative bacteria (Escherichia coli ATCC 25922, Salmonella typhimurium ATCC 14028 and Neisseria meningitides ATCC 1302); yeasts (Candid albicans ATCC 60193, Cryptococcus neoformans Wild strain and Candida parapsilosus ATCC 22019) and molds (Aspergillus fumigatus AUMC 8794, Penicillum chrysogenum AUMC 9476 and Fusarium sp.)
(§2) The clinical microorganisms were cultivated at least three times on suitable culture medium and incubating conditions before susceptibility test. The concentration of microbial inoculation suspensions in sterile sodium chloride solution (0.89%) were adjusted to 0.65 at 620 nm by spectrophotometer. […]
(§3) After that, the disks were dried at 25° C. under sterile conditions by safety biological cabinet. A Mueller-Hinton agar (MHA) (Scharlau Microbiogy, Spain) and a potato dextrose agar (PDA) (Scharlau, Spain) were used to perform antibacterial and antifungal test respectively. The media were prepared according to manufacturer's guidelines. To prepare one liter of MHA and one liter of PDA, 21 grams of MHA and 39 grams of PDA were dissolved in one liter of sterile distilled water, followed by sterilization at 121° C. for 15 minutes by an autoclave (HL-321, Taiwan). The sterilized media were poured in sterile plastic Petri dishes at 50° C. The plates were allowed to let the medium solidify at room temperature. 0.1 ml of microbial inoculation suspensions were spread on dried surface of medium and were kept at 25° C. for 5-10 minutes. The compound 4 and standard antimicrobial drugs discs (Table 1) were dispensed on the surface of inoculated media. The tested bacteria and fungi were incubated at 37±1° C. for 19-22 hours and at 25±1 for 48-72 hours respectively. After the incubation, the diameter of inhibition zone (millimeter) resulting from the biological activity of compound were recorded.

[2] = system: Candid albicans ATCC 60193; conditions: C. albicans; 4 mg/disk; soluble water compound 4
Description: as §1, §2, §3

[3] = system: Candida parapsilosus ATCC 22019; conditions: C. parasilosus; 4 mg/disk; soluble water compound 4
Description: as §1, §2, §3

[4] = system: Cryptococcus neoformans Wild strain; conditions: C. neoformasn; 4 mg/disk; soluble water compound 4
Description: as §1, §2, §3

[5] = system: Escherichia coli ATCC 25922; conditions: E. coli; 4 mg/disk; soluble water compound 4
Description: as §1, §2, §3

[6] = system: Fusarium sp.; conditions: Fusarium sp.; 4 mg/disk; soluble water compound 4
Description: as §1, §2, §3

[7] = system: Penicillum chrysogenum AUMC 9476; conditions: P. chrysoginum; 4 mg/disk; soluble water compound 4
Description: as §1, §2, §3

[8] = system: Salmonella typhimurium ATCC 14028; conditions: Sa. typhimurium; 4 mg/disk; soluble water compound 4
Description: as §1, §2, §3

[9] = system: Staphylococcus aureus ATCC; conditions: S. aureus; 4 mg/disk; soluble water compound 4
Description: as §1, §2, §3

[10] = system: Streptococcus mutans ATCC 35668; conditions: S. mutans
Description: as §1, §2, §3

With `CCOC(=O)CSC(=S)SCC(=O)OCC` [Compound 4, diethyl 2,2′-(thiocarbonylbis(sulfanediyl))diacetate] the Inhibition zone diameter [1] was 34.6 ± 0.5 A mm, the Inhibition zone diameter [2] was 20 ± 1 D mm and the Inhibition zone diameter [3] was 13 ± 1 E mm. For the same compound, the Inhibition zone diameter [4] was 30 mm and 30 ± 1 B mm, the Inhibition zone diameter [5] was 11.6 ± 0.5 E mm and the Inhibition zone diameter [6] was 30 ± 1 B mm. For the same compound, the Inhibition zone diameter [7] was 30.3 ± .5 B mm, the Inhibition zone diameter [8] was 8.6 ± 0.5 F mm and the Inhibition zone diameter [9] was 10.6 ± 0.5 F* mm. The “biological activity, in words” value [10] was “very good” and the Inhibition zone diameter ([10]; 4 mg/disk, soluble water compound 4) was 20 ± 1 D mm.
